In US11560559B2, “Inducing production of full-length progranulin (GRN) from nucleotides including mutations containing a premature stop codon (PTC)” (University of Kentucky Research Foundation, priority 2018, dated 2023):
“And” between values parts separate entries of the source, which are not always exact repeats. Equal entries are not always repeated. “Also recorded” adds a separate entry of the source.

Tests used:
R493X progranulin mRNA = assay: Full-length progranulin R493X mRNA level in N2A cells (qPCR); type: cell-based, human; conditions: with G418 treatment, qPCR (FIG. 5)
Procedure: N2A cells were exposed to G418 treatment for 24 hours with indicated concentrations after transfection. Primers specific for full length PGRN mRNA were used for qPCR. All results were normalized to full length WT progranulin in non-treated cells. N.S.: no significance. **, p<0.01; ***, p<0.001.
Total RNA was extracted with Aurum total RNA mini kit (BioRad, Cat. 732-6820), and cDNA was generated with SuperScript III first-strand synthesis system for RT-PCR (Invitrogen, Cat. 18080-051). Quantitive PCR was performed using SYBR Green (ThermoScientific, Cat. 4309155). Beta-actin primers: forward 5′-AGAGCTATGAGCTGCCTGAC-3′ (SEQ ID NO: 1); reverse 5′-GGATGTCAACGTCACACTTC-3′(SEQ ID NO: 2). Primers used for full length progranulin mRNA (including flag encoding sequence) is: forward 5′-CGTGAAGGCTTGATCCTGCGAGA-3′ (SEQ ID NO: 3), reverse 5′-CTTATCGTCATCCTTGTAATC-3′ (SEQ ID NO: 4). Annealing temperature for both beta-actin and progranulin qPCR reaction were 60° C.
In addition to inducing read-through, it has been reported that aminoglycosides can also stabilize mRNAs, which could enhance the read-through effect (35, 36). Therefore, qPCR was used to determine the mRNA levels in the absence and presence of G418.

R493X progranulin [1] = assay: Read-through of progranulin R493X nonsense mutation in transfected N2A cells (FLAG Western blot); type: cell-based, human; conditions: for rescued R493X expression / read-through efficiency as % of wild-type progranulin (summary statement): N2A cell culture, conditions not restated; for read-through, FLAG band intensity as percentage of WT progranulin: dose response, maximal concentration 2000 μg/ml; for read-through, FLAG band intensity as percentage of WT progranulin / read-through of R493X progranulin (FLAG-positive bands in Western blot): 24 hours; for read-through of R493X progranulin (FLAG-positive bands in Western blot): N2A cells transfected with R493X progranulin, two concentrations of each compound
Excerpt: (§1) The WT progranulin plasmid with a C-terminal FLAG tag (pC-Flag-PGRN-WT) was purchased from Sino Biological Inc. (Cat. HG10826-CF). Three nonsense mutations, Q125X, R229X and R493X, were generated using Q5 site-directed mutagenesis kit (New England Biolabs Inc., Cat. E0554S) to introduce a single nucleotide substitution in the WT progranulin gene (FIG. 1A). The WT progranulin with an N-terminal HA tag (HA-PGRN) was also generated by subcloning using the p3xHA vector (58) and HindIII and BamHI sites.
(§2) N2A cells were maintained in DMEM (Sigma, D5796) supplemented with 10% fetal bovine serum, 100 unit/mL penicillin, and 100 μg/mL streptomycin. Transient transfection was performed using Lipofectamine 2000 (Invitrogen, Life Technologies, Grand Island, N.Y., USA). […] was used for each well of 6-well plate unless otherwise described. After 6 hours transfection, fresh medium containing aminoglycoside at indicated concentrations was added to cells. Cells were applied to following experiments after exposed to drugs at certain time points. All cells were kept in a humidified incubator at 37° C. under 5% CO2/95% air.
Eleven aminoglycosides were tested in this study: G418 (Sigma-Aldrich, Cat. 4727878001), gentamicin (Sigma-Aldrich, Cat. G1397), Kanamycin (Gold Biotechnology, Cat. K-120-25), Streptomycin (Sigma-Aldrich, Cat. S9137), Amikacin (Alta Aesar, Cat. J67496), Tobramycin (Alta Aesar, Cat. J62995), Apramycin (Sigma-Aldrich, Cat. A2024), Neomycin B (Sigma-Aldrich, Cat. N6386), Netilmicin (Alta Aesar, Cat. J66302), Paromomycin (Alta Aesar, Cat. J61274), Sisomicin (Sigma-Aldrich, Cat. S7796). PTC124 was purchased from Med Chem Express (Cat. 775304-57-9).
Cells were lysed in RIPA buffer (Millipore Sigma, Cat. 20-188), centrifuged at 1000 g for 10 mins to remove debris, and then subjected to SDS electrophoresis. After electrophoresis, gels were proceeded for transferring onto nitrocellulose membranes. The membranes were then blocked with 5% milk in TBST (100 mM TRIS-HCl, pH7.5, 0.9% NaCl, 0.1% Tween-20) and incubated with indicated primary antibodies in the same solution. All immunoblotting images were acquired using a BioRad ChemiDoc MP system.
(§3) WT progranulin and three plasmids each with a single nonsense mutation (Q125X, Y229X, or R493X) and a C-terminal Flag tag (FIG. 1A) were constructed. A full-length protein must be generated for the FLAG to be detected, thus a truncated progranulin will not be detected by FLAG Western blotting. If read-through of the progranulin PTC occurs, then progranulin will be detectable by FLAG Western blotting.
R493X, which is the most common nonsense mutation in progranulin-mediated familial FTD (8, 31), was chosen to test whether aminoglycosides could induce read-through. N2A cells were transfected with the indicated plasmid, allowed to recover for 6 hours, and fresh media containing the aminoglycoside at the indicated concentrations was added to the cells for 24 hours. Cells were lysed and analyzed by Western blotting to determine the amount of progranulin protein. […] No signal was detected in lysate from cells transfected with R493X in the absence of any compounds, serving as a negative control. The FLAG-tagged WT progranulin was included as a positive control to define the expected progranulin-FLAG amount. […] It is noted that G418 induced a stronger effect than gentamicin.
A series of G418 and gentamicin concentrations were tested to examine the dose response of the read-through effect. N2A cells were transfected with the R493X progranulin plasmid, allowed to recover for 6 hours, fresh media containing either G418 or gentamicin at 100, 500, 1000 or 2000 μg/ml was added to cells for 24 hours. Cells were then lysed and lysates analyzed by Western blotting. The read-through was dose-dependent with the highest progranulin-FLAG signal corresponding to the highest concentration of compound (FIG. 2A). […]

R493X progranulin [2] = assay: as above; type: cell-based, human; conditions: time course, 1000 μg/ml G418, 12 hours
LAMB3 PTC = conditions: reported (ref. 27); cited from earlier work
Q125X progranulin = assay: Read-through of progranulin Q125X nonsense mutation in transfected N2A cells (FLAG Western blot); type: cell-based, human; conditions: 24 hours
Excerpt: as §1
(§4) N2A cells were maintained in DMEM (Sigma, D5796) supplemented with 10% fetal bovine serum, 100 unit/mL penicillin, and 100 μg/mL streptomycin. […]
as §3
(§5) Whether G418 or gentamicin could induce read-through of two additional progranulin nonsense mutations (Q125X or Y229X) and a FUS nonsense mutation R495X that has been identified in juvenile patients of the related neurodegenerative disease ALS was also tested.

R495X FUS = assay: Read-through of FUS R495X nonsense mutation in transfected N2A cells (FLAG Western blot); type: cell-based; conditions: three concentrations, 24 hours
Procedure: Examination of G418 on the R495X mutation of FUS responsible for familial ALS. WT or R495X FUS was tagged with FLAG at the N-terminus. N2A cells were transfected with WT or R495X FUS, allowed to recover, and treated with three concentrations of G418 for 24 hours. Cells were harvested and cell lysates were subjected to SDS-PAGE and Western analysis using anti-FLAG (top) and anti-actin (lower) antibodies. The slightly higher band is WT FUS and the lower band is R495X truncated FUS.
as §2, with “air. […]” for “air.”
as §5

Y229X progranulin = assay: Read-through of progranulin Y229X nonsense mutation in transfected N2A cells (FLAG Western blot); type: cell-based, human; conditions: 24 hours
Excerpt: as §1, §4, §3, §5

Compound: CN[C@@H]1[C@@H](O)[C@@H](O[C@@H]2[C@@H](O)[C@H](O[C@H]3O[C@H]([C@@H](C)O)[C@@H](O)[C@H](O)[C@H]3N)[C@@H](N)C[C@H]2N)OC[C@]1(C)O [G418]
- mRNA level of R493X as % of WT progranulin (R493X progranulin mRNA): ~60%
- rescued R493X expression / read-through efficiency as % of wild-type progranulin (summary statement) (R493X progranulin [1]): ~50%
- read-through, FLAG band intensity as percentage of WT progranulin (R493X progranulin [1]): 33.8% and > 30%
- read-through as % of the WT control (R493X progranulin [2]): ≈ 5%

Compound: O=C(O)c1cccc(-c2noc(-c3ccccc3F)n2)c1 [PTC124]
- read-through of R493X progranulin (FLAG-positive bands in Western blot) (R493X progranulin [1]): did not have any detectable read-through effect

Compound: NCC[C@H](O)C(=O)N[C@@H]1C[C@H](N)[C@@H](O[C@H]2O[C@H](CN)[C@@H](O)[C@H](O)[C@H]2O)[C@H](O)[C@H]1O[C@H]1O[C@H](CO)[C@@H](O)[C@H](N)[C@H]1O [amikacin]
- read-through of R493X progranulin (FLAG-positive bands in Western blot) (R493X progranulin [1]): did not have any detectable read-through effect

Compound: CN[C@@H]1[C@@H](O[C@H]2O[C@H](CO)[C@@H](N)[C@H](O)[C@H]2O)OC2C[C@@H](N)[C@@H](O[C@H]3[C@H](O)[C@@H](O)[C@H](N)C[C@@H]3N)OC2[C@@H]1O (some centres unmarked) [apramycin]
- read-through of R493X progranulin (FLAG-positive bands in Western blot) (R493X progranulin [1]): did not have any detectable read-through effect

Compound: NC[C@@H]1O[C@H](O[C@H]2[C@@H](O)[C@H](O[C@@H]3[C@@H](O)[C@H](N)C[C@H](N)[C@H]3O[C@H]3O[C@H](CN)[C@@H](O)[C@H](O)[C@H]3N)O[C@@H]2CO)[C@H](N)[C@@H](O)[C@@H]1O [neomycin B]
- read-through of R493X progranulin (FLAG-positive bands in Western blot) (R493X progranulin [1]): did not have any detectable read-through effect

Compound: CCN[C@@H]1C[C@H](N)[C@@H](O[C@H]2OC(CN)=CC[C@H]2N)[C@H](O)[C@H]1O[C@H]1OC[C@](C)(O)[C@H](NC)[C@H]1O [netilmicin]
- read-through of R493X progranulin (FLAG-positive bands in Western blot) (R493X progranulin [1]): did not have any detectable read-through effect

Compound: NC[C@@H]1O[C@H](O[C@H]2[C@@H](O)[C@H](O[C@@H]3[C@@H](O)[C@H](N)C[C@H](N)[C@H]3O[C@H]3O[C@H](CO)[C@@H](O)[C@H](O)[C@H]3N)O[C@@H]2CO)[C@H](N)[C@@H](O)[C@@H]1O [paromomycin]
- read-through of R493X progranulin (FLAG-positive bands in Western blot) (R493X progranulin [1]): did not have any detectable read-through effect

Compound: CN[C@@H]1[C@@H](O)[C@@H](O[C@@H]2[C@@H](O)[C@H](O[C@H]3OC(CN)=CC[C@H]3N)[C@@H](N)C[C@H]2N)OC[C@]1(C)O [sisomicin]
- read-through of R493X progranulin (FLAG-positive bands in Western blot) (R493X progranulin [1]): did not have any detectable read-through effect

Compound: [H]/N=C(/N)N[C@H]1[C@H](O)[C@@H](O)[C@H](O[C@@H]2O[C@@H](C)[C@](O)(C=O)[C@H]2O[C@@H]2O[C@@H](CO)[C@H](O)[C@@H](O)[C@@H]2NC)[C@@H](N/C(N)=N\[H])[C@@H]1O [streptomycin]
- read-through of R493X progranulin (FLAG-positive bands in Western blot) (R493X progranulin [1]): did not have any detectable read-through effect

Compound: NC[C@H]1O[C@H](O[C@H]2[C@H](O)[C@@H](O[C@H]3O[C@H](CO)[C@@H](O)[C@H](N)[C@H]3O)[C@H](N)C[C@@H]2N)[C@H](N)C[C@@H]1O [tobramycin]
- read-through of R493X progranulin (FLAG-positive bands in Western blot) (R493X progranulin [1]): did not have any detectable read-through effect

Compound: gentamicin
- read-through of the LAMB3 PTC (LAMB3 PTC): 30-50%
- rescued R493X expression / read-through efficiency as % of wild-type progranulin (summary statement) (R493X progranulin [1]): less than 10%
- read-through of R493X progranulin (FLAG-positive bands in Western blot) (R493X progranulin [1]): induced FLAG bands; also recorded: induced read-through
- read-through, FLAG band intensity as percentage of WT progranulin (R493X progranulin [1]): 8.6%
- read-through of Q125X progranulin (full-length protein by FLAG antibody) (Q125X progranulin): did not induce read-through
- read-through of Q125X progranulin (full-length protein by FLAG antibody) (Q125X progranulin; listed as Gentamicin): no readthrough effect
- read-through of FUS R495X (full-length protein) (R495X FUS): did not induce read-through
- read-through of FUS R495X (full-length protein) (R495X FUS; listed as Gentamicin): did not induce readthrough
- read-through of Y229X progranulin (full-length protein by FLAG antibody) (Y229X progranulin): did not induce read-through
- read-through of Y229X progranulin (full-length protein by FLAG antibody) (Y229X progranulin; listed as Gentamicin): no readthrough effect
